The nature of assay [1]: Development of insulin resistance in mice fed a high fat diet. The class given is in vivo. As to conditions: male mice, high fat diet 16 weeks; s.c. 0.5 or 2.5 mg/kg twice per day; vs control treatment. The procedure: The effects of the MLK inhibitor CEP-1347 on development of insulin resistance in mice is determined. Male mice are fed a high fat diet ad libitum (Diet F3282, Bio-Serv, Frenchtown, N.J.) or a standard diet for 16 weeks, with each group administered CEP-1347 subcutaneously (s.c.) at a dose of 0.5 or 2.5 mg/kg or vehicle control, twice per day. Body mass is recorded weekly, and blood samples are collected from the tail vain after an overnight fast after 6, 12, and 16 weeks on the diet. Blood glucose concentrations are measured with a DEX® glucometer (Bayer, Tarrytown, N.Y.), and plasma insulin is measured by ELISA kit for rat insulin (Crystal Chem, Downers Grove, Ill.). Glucose tolerance tests are performed by i.p. administration of glucose (1.8 g/kg) and measurement of blood glucose at t=15, 30, 60, 90, and 120 minutes in 16-week-old mice. Insulin tolerance tests are done similarly except with the injection of human insulin (1 unit per kg; Lilly Research Laboratories, Indianapolis). Untreated animals fed the high fat diet display hyperinsulinemia, hyperglycemia, decreased insulin sensitivity, and impaired glucose disposal.

A short description of assay [2]: Established insulin resistance in ob/ob mice. The class given is in vivo. The settings on record: s.c. 0.5 or 2.5 mg/kg twice per day for two weeks, vs vehicle control. How it is done: The effects of the MLK inhibitor CEP-1347 to alleviate established insulin resistance in mice is determined. Ten-week old ob/ob mice (Jackson Laboratory, Bar Harbor, Me.) are obese and display hyperinsulinemia, hyperglycemia, decreased insulin sensitivity, and impaired glucose disposal. Such mice are administered CEP-1347 subcutaneously (s.c.) at a dose of 0.5 or 2.5 mg/kg or vehicle control, twice per day for two weeks. Blood glucose concentrations are measured with a DEX® glucometer (Bayer, Tarrytown, N.Y.), and plasma insulin is measured by ELISA kit for rat insulin (Crystal Chem, Downers Grove, Ill.). Following day 14 of the treatment, glucose tolerance tests are performed by i.p. administration of glucose (1.8 g/kg) and measurement of blood glucose at t=15, 30, 60, 90, and 120 minutes. Insulin tolerance tests are performed similarly except with the injection of human insulin (1 unit per kg; Lilly Research Laboratories, Indianapolis).

The test system of the next assay is JNK. Put plainly: FFA-stimulated JNK activation in MEF (in vitro kinase assay with cJun / immunoblot). The class given is cell-based, mouse.
A further assay has as its system MLK3. Put plainly: MLK3 T-loop (Thr-277, Ser-281) phosphorylation immunoblot in MEF. The settings on record: MEF pretreated with phorbol ester, then FFA. The class given is cell-based, mouse. The procedure:
Wild-type, Mkk4^−/−, Mkk7^−/−, and Mkk4^−/− Mkk7^−/− MEF (Tournier et al., 2001, Genes Dev., 15:1419-1426) and wild-type and Mlk3^−/− MEF have been previously described (Brancho et al., 2005, Mol. Cell. Biol., 25:3670-3681). Wild-type and Pkcζ^−/− MEF have also been described (Leitges et al., 2001, Mol. Cell, 8:771-780). MEF and HEK293 cells (American Type Culture Collection) were cultured in Dulbecco's modified Eagle's medium (DMEM) supplemented with 10% fetal bovine serum (Invitrogen, Carlsbad, Calif.). HEK293 cells were transfected with Lipofectamine™ transfection reagent (Invitrogen, Carlsbad, Calif.). Sodium salts of fatty acids (Sigma-Aldrich, St. Louis, Mo.) were dissolved in PBS and mixed with free fatty acid (FFA)-free BSA (Roche). Stearic acid (Sigma-Aldrich, St. Louis, Mo.) was dissolved in ethanol and added to serum-free DMEM supplemented with 2% FFA-free BSA. […]
Protein extracts were prepared using lysis buffer [20 mM Tris™ buffer (pH 7.4), 1% Triton™ X-100 detergent, 10% glycerol, 137 mM NaCl, 2 mM EDTA, 25 mM β-glycerophosphate, 1 mM sodium orthovanadate, 1 mM phenylmethylsulfonyl fluoride, and 10 μg/mL of aprotinin and leupeptin]. […] JNK activity was measured in an in vitro kinase assay using [γ-^32P]ATP and cJun as substrates (Whitmarsh and Davis, 2001, Methods Enzymol., 332:319-336). […]
A general note: A western blot detects proteins with antibodies after separation by electrophoresis.

In assay [3] the test system is diacylglycerol-responsive PKC isoforms (α, δ, and ε). Description: Down-regulation of PKC isoforms in MEF by phorbol ester. The settings on record: 1 μM, 24 hours. The class given is cell-based, mouse. The procedure:
FIG. 7C is a set of nine gels depicting expression of PKCα, PKCδ, PKCε, MLK3, phospho-MLK3 (MLK3-P), JNK, and Tubulin and in vitro kinase activity (KA) on cJun (cJun-P) of PKGζ^−/− MEF pretreated with 1 μM TPA for 24 hours and then treated with 0.5 mM palmitate for 16 hours.
To test the requirement of PKC for FFA-stimulated MLK3 and JNK activation, the effect of PKC down-regulation was examined. In initial studies, siRNA was used to down-regulate the PKC isoforms expressed in MEF (PKCα, PKCδ, PKCε, and PKCζ). Down-regulation of individual PKC isoforms caused no change in FFA-induced MLK3 or JNK activation. […] Efficient simultaneous down-regulation of multiple PKC isoforms using siRNA was not obtained. An alternative approach was therefore used to obtain MEF lacking multiple PKC isoforms. […] The effect of pan-PKC deficiency was therefore examined by treating Pkcζ^−/− MEF with TPA (FIG. 7C).

Description for JNK: MEF and HEK293 cells (American Type Culture Collection) were cultured in Dulbecco's modified Eagle's medium (DMEM) supplemented with 10% fetal bovine serum (Invitrogen, Carlsbad, Calif.). […] Sodium salts of fatty acids (Sigma-Aldrich, St. Louis, Mo.) were dissolved in PBS and mixed with free fatty acid (FFA)-free BSA (Roche). Stearic acid (Sigma-Aldrich, St. Louis, Mo.) was dissolved in ethanol and added to serum-free DMEM supplemented with 2% FFA-free BSA. After 1 hour incubation in serum-free DMEM, cells were treated with 0.5 mM fatty acid/0.5% BSA for 1-16 hours at 37° C.
Protein extracts were prepared using lysis buffer [20 mM Tris™ buffer (pH 7.4), 1% Triton™ X-100 detergent, 10% glycerol, 137 mM NaCl, 2 mM EDTA, 25 mM β-glycerophosphate, 1 mM sodium orthovanadate, 1 mM phenylmethylsulfonyl fluoride, and 10 μg/mL of aprotinin and leupeptin]. Extracts (50 μg of protein) were examined by immunoblot analysis with antibodies obtained from Cell Signaling (MLK3, phosphoThr277, Ser281-MLK3, ERK, phospho-ERK, p38, phospho-p38, AKT, phosphoSer473-AKT, PKCα, PKCδ, phospho-T-loop-PKC, and phospho-JNK), Transduction Labs (PKCε), PharMingen (JNK), Sigma (α-Tubulin), and Upstate Biotechnology (IRS1, phosphoSer307-IRS1 and phospho-MKK7). JNK activity was measured in an in vitro kinase assay using [γ-^32P]ATP and cJun as substrates (Whitmarsh and Davis, 2001, Methods Enzymol., 332:319-336). […]

As to `CCSCc1ccc2c(c1)c1c3c(c4c5cc(CSCC)ccc5n5c4c1n2[C@H]1C[C@](O)(C(=O)OC)[C@]5(C)O1)CNC3=O` [CEP-1347], the “hyperinsulinemia, hyperglycemia, decreased insulin sensitivity, impaired glucose disposal” value in assay [1] was “decreases these symptoms”. In addition, in assay [2], the hyperinsulinemia and hyperglycemia result was “decreases hyperinsulinemia and hyperglycemia”; the “insulin and glucose tolerance” value is “at least partially restores insulin and glucose tolerance”.
As to `CCCCCCCCCCCCCC(=O)O[C@@H]1[C@@H](C)[C@@]2(O)[C@@H](C=C(CO)C[C@]3(O)C(=O)C(C)=C[C@@H]23)[C@@H]2C(C)(C)[C@]12OC(C)=O` [TPA, Phorbol-12-Myristate-13-Acetate], in the assay with JNK (MEF pretreated with phorbol ester, then FFA), the “effect on FFA-induced JNK activation” value is recorded as “did not affect”. In addition, the “effect on FFA-induced MLK3 activation” value with MLK3 is “did not affect”. Moreover, the “down-regulation of PKC isoforms” value in assay [3] is “caused down-regulation of diacylglycerol-responsive PKC isoforms (α, δ, and ε)”.
`CCCCCCCCCCCCCCCCCC(=O)O` [stearate, stearic acid]: in the assay on JNK (MEF, 0.5 mM FFA, 16 hours), the JNK activation result is recorded as “resulted in JNK activation”.
